The values that follow come from article PMC10876879, “Sustained silencing peanut allergy by xanthopurpurin is associated with suppression of peripheral and bone marrow IgE-producing B cell” (Frontiers in Immunology, 2024).

Data set [1] concerns IgE production. The data set can be described thus: IgE production in vitro, other R. cordifolia compounds (data not shown). The data set is classed as cell-based.
The test system of data set [2] is IgE production. The data set can be described thus: IgE production in vivo, other R. cordifolia compounds (data not shown).
Data set [3] relates to IgE production. The settings on record: cited from earlier work.
The subject of data set [4] is PN-allergic mice. The settings on record: oral berberine alone; cited from earlier work.
Details of data set [5]: method as in PMID 28208101. The settings on record: cited from earlier work.
For data set [6], the system named is IgE. Set-up: method as in PMID 26185589. The settings on record: cited from earlier work.

Like-named read-outs stand apart in the source and are kept apart here.

Take “1,3-dihydroxy-2-ethoxymethyl-9,10 anthraquinone [alizarin]”: the “IgE production in vitro” value in data set [1] is reported as “inhibited IgE production only in vitro”. For the same compound, the “IgE production in vivo” value in data set [2] is “failed in vivo”.
With `COc1ccc2cc3[n+](cc2c1OC)CCc1cc2c(cc1-3)OCO2` [berberine], in data set [3], the “IgE production in vitro” value was “significantly inhibited the IgE production”. Moreover, in data set [4], the “PN-specific IgE levels” value is “did not reduce PN-specific IgE levels” and the Protection from anaphylaxis entry is reported as “failed to protect PN-allergic mice from anaphylaxis”. Besides, the Bioavailability entry in data set [5] is on record as “poor”.
In the case of `O=C1c2ccccc2C(=O)c2c(O)c(O)cc(O)c21` [purpurin, 1,2,4-trihydroxyanthraquinone], the “IgE production in vitro” value in data set [1] is given as “inhibited IgE production only in vitro”. Besides, the “IgE production in vivo” value in data set [2] was “failed in vivo”.
With “omalizumab: anti-IgE therapy, neutralizes free serum IgE”, the “Anaphylactic reactions during oral immunotherapy (OIT)” value in data set [6] was “greatly reduce anaphylactic reactions”.
